Test results as given in patent US7205409B2, “Pharmaceutical compositions as inhibitors of dipeptidyl peptidase-IV (DPP-IV)” (Abbott Laboratories, priority 2003, dated 2007).

Legend:
[1] = Chemical Stability Assay (HPLC, phosphate buffer pH 7.4, 37° C.); type: physicochemical; details: stability to internal cyclization, read-out: chemical stability half-life (T1/2) (converted)
Description: For the determination of chemical stability, compounds of the present invention are assayed using the following protocol:
A solution of each DPP-IV compound was prepared in an appropriate mobile phase. This was injected and analyzed by HPLC to identify the parent drug peak in the chromatograms. Stability solutions were prepared in 50 mM phosphate buffer pH 7.4 adjusted to μ=0.155. Samples were weighed using a Mettler-Toledo microbalance and transferred into a 20 ml glass scintillation vial or a volumetric flask. The phosphate buffer pH 7.4 was added with an EDP Plus 10 ml electronic pipette. The samples were sonicated for approximately 2 minutes and filtered using a PTFE membrane syringe filter. The filtrate was transferred to amber HPLC vials and placed in an autosampler at 37° C. The first sample was immediately injected and counted as the time zero sample. The solution concentration was measured at various timepoints using an appropriate HPLC method. After data acquisition was completed, the chromatograms were processed for each compound. The rate and half-life were determined from a plot of log10 peak area remaining/peak area at zero time vs. exposure time @37° C. using Microsoft® Excel 2000. Rates of reaction and half-lives were calculated using a pseudo-first order kinetic model.

[2] = tested on: Insulin resistant female ZDF rats; test: acute oral glucose tolerance test (OGTT); type: in vivo, rat; details: OGTT 2 gm/kg four hours later
Description: Compounds of the present invention are evaluated for the ability to treat diabetes using an acute oral glucose tolerance test (OGTT) as follows: Insulin resistant female ZDF rats, 11 weeks of age, on a normal chow diet, are fasted overnight. A baseline tail snip blood sample is taken to measure glucose levels (Precision PCx glucose meter, Abbott Laboratories, Abbott Park, Ill.) at the beginning of the experiment. Immediately after this baseline sample, compounds of the present invention (or placebo) are dosed orally. Four hours later, a tail snip blood glucose measurement is taken, immediately followed by an oral glucose dose (OGTT, 2 gm/kg). The glucose excursion is followed for 2 hr with samples taken at 10, 20, 30, 60 and 120 min post OGTT. These timed glucose data are used to construct a glucose excursion curve, from which an area under the glucose curve (AUGC) is determined. Data are reported as the baseline-adjusted area under the glucose curve (deltaAUGC) for drug and control groups.

SMILES: C[C@H]1CC[C@@H](C(=O)N2CCC[C@H]2C#N)N1 [Comparative compound α]
- half-life [1]: 5.3 h

SMILES: N#C[C@@H]1CCCN1C(=O)[C@@H]1CC[C@H](c2ccccc2)N1 [Comparative compound γ]
- half-life [1]: 12.2 h

SMILES: N#C[C@@H]1CCCN1C(=O)[C@@H]1CC[C@H](COc2ccc(C(=O)O)c3ccccc23)N1 [Example 54, (2S)-1-{(5R)-5-((4-carboxynaphthalen-1-yloxy)methyl)-L-prolyl}-pyrrolidine-2-carbonitrile]
- δ AUGC ([2]; 1.0 mg/kg oral): 7,600 mg/mL/dL
- δ AUGC, change versus control ([2]; 1.0 mg/kg oral): −24%
- δ AUGC ([2]; 3.0 mg/kg oral): 7,300 mg/mL/dL
- δ AUGC, change versus control ([2]; 3.0 mg/kg oral): −27%
